Experimental findings from patent US9035071B2, “Compounds acting at multiple prostaglandin receptors giving a general anti-inflammatory response” (Allergan, Inc., priority 2011, dated 2015) are described below.

Bounds are passed on as bounds.

Holding throughout (assay type): cell-based
Assay [1] concerns the target T1, human recombinant prostanoid FP receptor (Homo sapiens, UniProt P43088).
T1 construct: expressed in transfected cells
The assay is described as follows: FLIPR Ca2+ signaling, PG antagonist activity, FP. Conditions: antagonism of standard agonist 17-phenyl-PGF2α, HEK-293 EBNA stable cells. The protocol: (§1) The above compounds were tested for PG antagonist activity as follows using human recombinant prostanoid receptor (DP1, EP1-4, FP, IP and TP) stable cell lines:
(§2) In order to measure the response of Gs and Gi coupled prostanoid receptors as a Ca^2+ signal, chimeric G protein cDNAs were used. Stable cell lines over-expressing human prostanoid DP1, EP1-4, FP, IP, and TP receptors were established as follows:
(§3) Briefly, human prostanoid DP1, EP2, and EP4 receptor cDNAs were co-transfected with chimeric Gqs cDNA containing a haemagglutanin (HA) epitope; human prostanoid EP3 receptors were co-transfected with chimeric Gqi-HA; human EP1, FP, IP, and TP receptor cDNAs were expressed with no exogenous G-proteins. Gqs and Gqi chimeric cDNAs (Molecular Devices, Sunnyvale, Calif., U.S.A.), as well as cDNAs of prostanoid receptors, were cloned into a pCEP4 vector with a hygromycin B selection marker. Transfection into HEK-293 EBNA (Epstein-Barr virus nuclear antigen) cells was achieved by the FuGENE 6 transfection Reagent (Roche Applied Science, Indianapolis, Ind., USA). Stable transfectants were selected according to hygromycin resistance. Because Gqs and Gqi contained an HA epitope, G-protein expression was detected by Western blotting analysis using anti-mouse HA monoclonal antibody and horseradish peroxidase (HRP)-conjugated secondary antibody, while functional expression of prostanoid receptors was detected by FLIPR screening (Matias et al., 2004). These stable cell lines were validated using previously published antagonists at 10 μM against serial dilutions of standard agonists by FLIPR functional assays for Ca^2− Signaling (as described below).
(§4) Ca^2+ signaling studies were performed using a FLIPR TETRA system (Molecular Devices, Sunnyvale, Calif., USA) in the 384-format. This is a high-throughput instrument for cell-based assays to monitor Ca^2+ signaling associated with GPCRs and ion channels. Cells were seeded at a density of 5×10^4 cells/well in BioCoat poly-D-lysine coated, black wall, clear bottom 384-well plates (BD Biosciences, Franklin lakes, N.J., USA) and allowed to attach overnight in an incubator at 37° C. The cells were then washed twice with HBSS-HEPES buffer (Hanks' balanced salt solution without bicarbonate and phenol red, 20 mM HEPES, pH 7.4) using an ELx405 Select CW Microplate Washer (BioTek, Winooski, Vt., USA). After 60 min of dye-loading in the dark using the Ca^2+-sensitive dye Fluo-4AM (Invitrogen, Carlsbad, Calif., USA), at a final concentration of 2×10^−6M, the plates were washed 4 times with HBSS-HEPES buffer to remove excess dye and leaving 50 μl of buffer in each well. The plates were then placed in the FLIPR TETRA instrument and allowed to equilibrate at 37° C. AGN-211377 was added in a 25 μl volume to each well to give final concentrations of 0.1 μM, 0.3 μM, 1 μM, 3 μM, 10 μM, and 30 μM; or 0.067 μM, 0.1 μM, 0.2 μM, 0.3 μM, 0.67 μM, and 1 μM for cells over-expressing TP receptors. After 4.5 minutes, a 7-point serial dilution of the standard agonist for the corresponding receptor, in a 25 μl volume was injected at the final concentrations from 10^−11M to 10^−5M in 10-fold serial dilution increments for cells expressing human recombinant DP1, EP1, EP2, EP3, EP4, FP, and IP receptors. The dose range for the standard agonist for human recombinant TP receptors was from 10^−12M to 10^−6M. HBSS-HEPES buffer was used as the negative control for the standard agonists. Cells were excited with LED (light emitting diode) excitation at 470-495 nm and emission was measured through an emission filter at 515-575 nm. Assay plates were read for 3.5 minutes using the FLIPR^TETRA. The peak increase in fluorescence intensity was recorded for each well. On each plate, negative controls, dose response of positive controls, and co-treatments of antagonist-agonist for each dose were in triplicates. Standard agonists were as follows: DP=BW 245C, EP1-EP4=PGE2, FP=17-phenyl-PGF2α, IP=Cicaprost, and TP=U-46619. […]

In assay [2] the target is T2, human recombinant prostanoid IP receptor (Homo sapiens, UniProt P43119).
T2 construct: expressed in transfected cells
The assay is described as follows: FLIPR Ca2+ signaling, PG antagonist activity, IP. Conditions: antagonism of standard agonist Cicaprost, HEK-293 EBNA stable cells. Here is the method: as §1, §2, §3, §4

Assay [3] deals with T3, human recombinant prostanoid EP2 receptor (Homo sapiens, UniProt P43116).
T3 construct: expressed in transfected cells; co-transfected with chimeric Gqs-HA
The assay is described as follows: FLIPR Ca2+ signaling, PG antagonist activity, EP2. Conditions: antagonism of standard agonist PGE2, HEK-293 EBNA stable cells with chimeric Gqs. The protocol: as §1, §2, §3, §4

The target of assay [4] is T4, human recombinant prostanoid EP3 receptor (Homo sapiens, UniProt P43115).
T4 construct: expressed in transfected cells; co-transfected with chimeric Gqi-HA
T4 sequence (P43115 1-390): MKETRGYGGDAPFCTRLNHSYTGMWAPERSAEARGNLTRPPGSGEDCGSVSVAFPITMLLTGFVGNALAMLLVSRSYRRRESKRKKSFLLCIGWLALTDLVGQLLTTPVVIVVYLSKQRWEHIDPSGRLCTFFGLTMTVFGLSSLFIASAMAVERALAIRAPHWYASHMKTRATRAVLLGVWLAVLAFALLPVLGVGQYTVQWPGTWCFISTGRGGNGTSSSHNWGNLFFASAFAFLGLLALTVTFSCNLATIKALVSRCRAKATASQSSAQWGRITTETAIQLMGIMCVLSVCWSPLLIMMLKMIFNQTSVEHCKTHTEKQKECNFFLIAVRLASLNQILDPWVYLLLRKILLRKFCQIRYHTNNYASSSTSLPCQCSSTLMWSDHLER
As to the kind of experiment: FLIPR Ca2+ signaling, PG antagonist activity, EP3. Conditions: antagonism of standard agonist PGE2, HEK-293 EBNA stable cells with chimeric Gqi. The protocol: as §1, §2, §3, §4

The target in assay [5] is T5, human recombinant prostanoid TP receptor (Homo sapiens, UniProt P21731).
T5 construct: expressed in transfected cells
T5 sequence (P21731 1-343): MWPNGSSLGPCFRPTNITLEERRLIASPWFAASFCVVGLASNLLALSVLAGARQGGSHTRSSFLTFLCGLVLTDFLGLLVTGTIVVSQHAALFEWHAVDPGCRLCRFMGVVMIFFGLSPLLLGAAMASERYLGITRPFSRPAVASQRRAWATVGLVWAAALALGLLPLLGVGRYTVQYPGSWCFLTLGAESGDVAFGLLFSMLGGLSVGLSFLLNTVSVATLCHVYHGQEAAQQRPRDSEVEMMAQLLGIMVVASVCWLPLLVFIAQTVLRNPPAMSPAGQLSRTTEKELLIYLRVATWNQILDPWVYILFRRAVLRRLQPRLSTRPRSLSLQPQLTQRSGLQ
As to the kind of experiment: FLIPR Ca2+ signaling, PG antagonist activity, TP. Conditions: antagonism of standard agonist U-46619, HEK-293 EBNA stable cells. The protocol: as §1, §2, §3, §4

T1 sequence (P43088 whole entry): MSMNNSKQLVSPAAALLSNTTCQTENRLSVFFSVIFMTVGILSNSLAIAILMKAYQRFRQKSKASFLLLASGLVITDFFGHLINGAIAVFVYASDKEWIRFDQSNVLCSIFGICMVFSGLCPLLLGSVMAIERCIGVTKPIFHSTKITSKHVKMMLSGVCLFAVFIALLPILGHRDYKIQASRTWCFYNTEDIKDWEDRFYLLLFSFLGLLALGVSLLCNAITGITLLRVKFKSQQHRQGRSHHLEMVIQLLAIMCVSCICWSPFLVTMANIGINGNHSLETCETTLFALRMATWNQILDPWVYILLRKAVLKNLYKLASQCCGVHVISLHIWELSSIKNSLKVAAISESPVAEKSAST
T3 sequence (P43116 whole entry): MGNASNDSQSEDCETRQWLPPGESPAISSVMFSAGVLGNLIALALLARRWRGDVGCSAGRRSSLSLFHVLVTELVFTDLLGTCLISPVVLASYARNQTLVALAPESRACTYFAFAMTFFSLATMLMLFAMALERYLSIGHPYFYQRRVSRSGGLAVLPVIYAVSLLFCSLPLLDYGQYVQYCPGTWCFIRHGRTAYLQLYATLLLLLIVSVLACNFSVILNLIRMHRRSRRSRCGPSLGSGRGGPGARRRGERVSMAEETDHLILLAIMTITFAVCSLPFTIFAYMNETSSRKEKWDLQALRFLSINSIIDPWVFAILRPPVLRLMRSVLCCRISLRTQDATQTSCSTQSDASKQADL
T2 sequence (P43119 whole entry): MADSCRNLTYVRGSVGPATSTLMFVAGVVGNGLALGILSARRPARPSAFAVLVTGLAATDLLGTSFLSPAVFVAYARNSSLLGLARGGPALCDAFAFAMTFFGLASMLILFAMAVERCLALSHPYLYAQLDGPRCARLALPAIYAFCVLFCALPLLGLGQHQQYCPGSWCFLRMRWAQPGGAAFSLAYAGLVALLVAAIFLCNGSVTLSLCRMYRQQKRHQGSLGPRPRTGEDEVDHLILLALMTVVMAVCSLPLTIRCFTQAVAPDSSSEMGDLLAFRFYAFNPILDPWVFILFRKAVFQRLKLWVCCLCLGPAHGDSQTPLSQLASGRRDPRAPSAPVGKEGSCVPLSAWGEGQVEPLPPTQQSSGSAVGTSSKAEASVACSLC

As a reminder, the Kb is the affinity of an antagonist, worked out from how it opposes an agonist. `CCC(CC)COc1ccc(Br)cc1Cn1ncc(C(=O)O)c1C` [Example 2, 1-[5-bromo-2-(2-ethyl-butoxy)-benzyl]-5-methyl-1H-pyrazole-4-carboxylic acid]: the antagonist dissociation constant (Kb) in assay [1] was 80 nM; in assay [2], 2.4 µM; in assay [3], not below 10 µM; in assay [4] it was 6.1 µM; in assay [5], 12 nM.

Regarding `CCC(CC)COc1ccc(C(F)(F)F)cc1Cn1cc(C(=O)O)c(C)n1` [Example 9, 1-[2-(2-ethyl-butoxy)-5-trifluoromethyl-benzyl]-3-methyl-1H-pyrazole-4-carboxylic acid], the Kb was 7200 nM in assay [1]; not below 10 µM in assay [2]; not below 10 µM in assay [3]; not below 10 µM in assay [4]; 440 nM in assay [5].

Consider `CCC(CC)COc1ccc(Br)cc1Cn1ncc(CC(=O)O)c1C` [Example 1, {1-[5-bromo-2-(2-ethyl-butoxy)-benzyl]-5-methyl-1H-pyrazol-4-yl}-acetic acid], for which the Kb is 2700 nM in assay [1]; 4.8 µM in assay [2]; not below 10 µM in assay [3]; not below 10 µM in assay [4]; 3 nM in assay [5].

With `CCCc1c(C(=O)O)cnn1Cc1cc(Cl)ccc1OCC(CC)CC` [Example 7, 1-[5-chloro-2-(2-ethyl-butoxy)-benzyl]-5-propyl-1H-pyrazole-4-carboxylic acid], the Kb was not below 10000 nM in assay [1]; 1.8 µM in assay [2]; not below 10 µM in assay [3]; not below 10 µM in assay [4]; 150 nM in assay [5].

Consider `Cc1c(C(=O)O)cnn1Cc1cc(Cl)ccc1OCC(C)C` [Example 11, 1-(5-chloro-2-isobutoxy-benzyl)-5-methyl-1-pyrazole-4-carboxylic acid], for which the Kb in assay [1] is 500 nM; in assay [2] it was 8.3 µM; in assay [3], not below 10 µM; in assay [4], not below 10 µM; in assay [5], 80 nM.

As for `CCC(CC)COc1ccc(Cl)cc1Cn1ncc(C(=O)O)c1C` [Example 10, 1-[5-chloro-2-(2-ethyl-butoxy)-benzyl]-5-methyl-1H-pyrazole-4-carboxylic acid], the Kb in assay [1] was 190 nM; in assay [2], 1.3 µM; in assay [3] it was not below 10 µM; in assay [4], 3.9 µM; in assay [5] it was 6 nM.

For the compound `Cc1c(C(=O)O)cnn1Cc1cc(Br)ccc1OCC(C)C` [Example 13, 1-(5-bromo-2-isobutoxy-benzyl)-5-methyl-1H-pyrazole-4-carboxylic acid], the Kb in assay [1] is 70 nM; in assay [2], 7.7 µM; in assay [3] it was not below 10 µM; in assay [4], not below 10 µM; in assay [5] it was 20 nM.

Consider `CCC(CC)COc1ccc(C(F)(F)F)cc1Cn1ncc(C(=O)O)c1C` [Example 8, 1-[2-(2-ethyl-butoxy)-5-trifluoromethyl-benzyl]-5-methyl-1H-pyrazole-4-carboxylic acid], for which the Kb in assay [1] is 200 nM; in assay [2], not below 10 µM; in assay [3], not below 10 µM; in assay [4] it was not below 10 µM; in assay [5] it was 45 nM.

Consider `CCC(CC)COc1ccc(Cl)cc1Cn1cc(C(=O)O)cn1` [Example 4, 1-[5-chloro-2-(2-ethyl-butoxy)-benzyl]-1H-pyrazole-4-carboxylic acid], for which the Kb was 2000 nM in assay [1]; 3.1 µM in assay [2]; not below 10 µM in assay [3]; not below 10 µM in assay [4]; 100 nM in assay [5].

Consider `CCC(CC)COc1ccc(Br)cc1Cn1cc(C(=O)O)c(C)n1` [Example 3], for which the Kb in assay [1] was 400 nM; in assay [2] it was 1.4 µM; in assay [3] it was not below 10 µM; in assay [4], not below 10 µM; in assay [5] it was 30 nM.

With `CCC(CC)COc1ccc(OC(F)(F)F)cc1Cn1ncc(C(=O)O)c1C` [Example 15, 1-[2-(2-ethyl-butoxy)-5-trifluoromethoxy-benzyl]-5-methyl-1H-pyrazole-4-carboxylic acid], the Kb was 140 nM in assay [1]; not below 10 µM in assay [2]; not below 10 µM in assay [3]; not below 10 µM in assay [4]; 8 nM in assay [5].

With `CCC(CC)COc1ccc(Br)cc1Cn1ncc(C(=O)O)c1N` [Example 16, 5-amino-1-[5-bromo-2-(2-ethyl-butoxy)-benzyl]-1H-pyrazole-4-carboxylic acid], the Kb in assay [1] was 200 nM; in assay [2], 5.1 µM; in assay [3] it was not below 10 µM; in assay [4], not below 10 µM; in assay [5] it was 50 nM.

Regarding `Cc1c(C(=O)O)cnn1Cc1cc(Cl)ccc1OCC1CCCC1` [Example 12, 1-(5-chloro-2-cyclopentylmethoxy-benzyl)-5-methyl-1H-pyrazole-4-carboxylic acid], the Kb in assay [1] is 110 nM; in assay [2] it was 2.65 µM; in assay [3] it was not below 10 µM; in assay [4], not below 10 µM; in assay [5], 40 nM.

With `CCC(CC)COc1ccc(Cl)cc1Cn1nc(C)c(C(=O)O)c1C` [Example 5, 1-[5-chloro-2-(2-ethyl-butoxy)-benzyl]-3,5-dimethyl-1H-pyrazole-4-carboxylic acid], the Kb in assay [1] is 700 nM; in assay [2] it was 0.6 µM; in assay [3] it was not below 10 µM; in assay [4], not below 10 µM; in assay [5], 18 nM.

`Cc1c(C(=O)O)cnn1Cc1cc(Br)ccc1OCC(C)(C)C` [Example 14, 1-[5-bromo-2-(2,2-dimethyl-propoxy)-benzyl]-5-methyl-1H-pyrazole-4-carboxylic acid]: the Kb was 90 nM in assay [1]; not below 10 µM in assay [2]; not below 10 µM in assay [3]; not below 10 µM in assay [4]; 20 nM in assay [5].
